Reference: PubChem BioAssay (NCI)
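These data come from cells grown in 96-well plates and exposed to compound for 48 hours at five concentrations. GI50 = concentration required for 50% inhibition of growth. TGI: concentration producing complete growth inhibition.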

Columns and labels:
Assay in all cases: growth of human tumour cells (NCI), 48 h
[1] = system: 786-0 renal
[2] = system: A498 renal
[3] = system: A549 NSCLC
[4] = system: ACHN renal
[5] = system: BT-549 breast
[6] = system: CAKI-1 renal
[7] = system: CCRF-CEM leukemia
[8] = system: COLO 205 colon
[9] = system: DU-145 prostate
[10] = system: EKVX NSCLC
[11] = system: HCC-2998 colon
[12] = system: HCT-116 colon
[13] = system: HCT-15 colon
[14] = system: HL-60(TB) leukemia
[15] = system: HOP-62 NSCLC
[16] = system: HOP-92 NSCLC
[17] = system: HS 578T breast
[18] = system: HT29 colon
[19] = system: IGROV1 ovarian
[20] = system: K-562 leukemia
[21] = system: KM12 colon
[22] = system: LOX IMVI melanoma
[23] = system: M14 melanoma
[24] = system: MALME-3M melanoma
[25] = system: MCF7 breast
[26] = system: MDA-MB-231 breast
[27] = system: MDA-MB-435
[28] = system: MDA-MB-468 breast
[29] = system: MOLT-4 leukemia
[30] = system: NCI-H226 lung
[31] = system: NCI-H23 lung
[32] = system: NCI-H460 lung
[33] = system: NCI-H522 lung
[34] = system: NCI/ADR-RES ovarian
[35] = system: OVCAR-3 ovarian
[36] = system: OVCAR-4 ovarian
[37] = system: OVCAR-5 ovarian
[38] = system: OVCAR-8 ovarian
[39] = system: PC-3 prostate
[40] = system: RPMI-8226 leukemia
[41] = system: RXF 393 renal
[42] = system: SF-268 CNS
[43] = system: SF-295 CNS
[44] = system: SF-539 CNS
[45] = system: SK-MEL-2 melanoma
[46] = system: SK-MEL-28 melanoma
[47] = system: SK-MEL-5 melanoma
[48] = system: SK-OV-3 ovarian
[49] = system: SN12C renal
[50] = system: SNB-19 CNS
[51] = system: SNB-75 CNS
[52] = system: SR leukemia
[53] = system: SW-620 colon
[54] = system: T-47D breast
[55] = system: TK-10 renal
[56] = system: U251 CNS
[57] = system: UACC-257 melanoma
[58] = system: UACC-62 melanoma
[59] = system: UO-31 renal

With `C[C@@H](Nc1c(C#N)cnc2ccc(-c3cnc4[nH]ncc4c3)cc12)c1ccccc1` the GI50 [1] was 2740 nM, the TGI [1] was 11.3 µM and the GI50 [2] was 2550 nM. The TGI [2] was 6.8 µM, the GI50 [3] was 2530 nM and the TGI [3] was 10.9 µM. It also gave a GI50 [4] of 699 nM, a TGI [4] of 11.3 µM and a GI50 [5] of 353 nM. It also gave a TGI [5] of 4.83 µM, a GI50 [6] of 2780 nM and a TGI [6] of 10.9 µM. It also gave a GI50 [7] of 2460 nM, a TGI [7] greater than 100 µM and a GI50 [8] of 16.3 µM. For the same compound, the TGI [8] was 37 µM, the GI50 [9] was 2760 nM and the TGI [9] was 25.2 µM. For the same compound, the GI50 [10] was 827 nM, the TGI [10] was 4.45 µM and the GI50 [11] was 4.69 µM. It also gave a TGI [11] of 26 µM, a GI50 [12] of 3.77 µM and a TGI [12] of 16.1 µM. The GI50 [13] was 3.17 µM, the TGI [13] was 16.4 µM and the GI50 [14] was 1740 nM. It also gave a TGI [14] of 7.98 µM, a GI50 [15] of 3.03 µM and a TGI [15] of 19 µM. For the same compound, the GI50 [16] was 1080 nM, the TGI [16] was 7.29 µM and the GI50 [17] was 1270 nM. The TGI [17] was 5.37 µM, the GI50 [18] was 14.5 µM and the TGI [18] was 35.2 µM. It also gave a GI50 [19] of 1910 nM, a TGI [19] of 4.07 µM and a GI50 [20] of 4.67 µM. For the same compound, the TGI [20] was greater than 100 µM, the GI50 [21] was 4.2 µM and the TGI [21] was 21.5 µM. The GI50 [22] was 3.12 µM, the TGI [22] was 16.7 µM and the GI50 [23] was 2430 nM. The TGI [23] was 19.1 µM, the GI50 [24] was 1160 nM and the TGI [24] was 7.27 µM. The GI50 [25] was 1870 nM, the TGI [25] was 7.81 µM and the GI50 [26] was 2380 nM. For the same compound, the TGI [26] was 13.8 µM, the GI50 [27] was 3.5 µM and the TGI [27] was 19.5 µM. For the same compound, the GI50 [28] was 1160 nM, the TGI [28] was 2670 nM and the GI50 [29] was 1610 nM. For the same compound, the TGI [29] was 5.02 µM, the GI50 [30] was 2850 nM and the TGI [30] was 14.3 µM. It also gave a GI50 [31] of 4.31 µM, a TGI [31] of 22 µM and a GI50 [32] of 2660 nM. The TGI [32] was 13.2 µM, the GI50 [33] was 1710 nM and the TGI [33] was 11.6 µM. It also gave a GI50 [34] of 3.71 µM, a TGI [34] of 34.8 µM and a GI50 [35] of 2140 nM. For the same compound, the TGI [35] was 11.9 µM, the GI50 [36] was 3.47 µM and the TGI [36] was 18 µM. For the same compound, the GI50 [37] was 3.89 µM, the TGI [37] was 18.3 µM and the GI50 [38] was 2330 nM. The TGI [38] was 23.5 µM, the GI50 [39] was 2580 nM and the TGI [39] was greater than 100 µM. For the same compound, the GI50 [40] was 2040 nM, the TGI [40] was 11.3 µM and the GI50 [41] was 1260 nM. It also gave a TGI [41] of 3.55 µM, a GI50 [42] of 3.56 µM and a TGI [42] of 34 µM. It also gave a GI50 [43] of 2110 nM, a TGI [43] of 10.5 µM and a GI50 [44] of 2590 nM. For the same compound, the TGI [44] was 12.2 µM, the GI50 [45] was 3.23 µM and the TGI [45] was 16 µM. For the same compound, the GI50 [46] was 2060 nM, the TGI [46] was 14.4 µM and the GI50 [47] was 1710 nM. The TGI [47] was 5.96 µM, the GI50 [48] was 2160 nM and the TGI [48] was 7.98 µM. For the same compound, the GI50 [49] was 1570 nM, the TGI [49] was 12.8 µM and the GI50 [50] was 2480 nM. It also gave a TGI [50] of 28 µM, a GI50 [51] of 1100 nM and a TGI [51] of 5.16 µM. It also gave a GI50 [52] of 2230 nM, a TGI [52] of 19.7 µM and a GI50 [53] of 4.65 µM. For the same compound, the TGI [53] was 23.2 µM, the GI50 [54] was 2880 nM and the TGI [54] was 8.36 µM. It also gave a GI50 [55] of 2960 nM, a TGI [55] of 8.36 µM and a GI50 [56] of 4.91 µM. For the same compound, the TGI [56] was 22.7 µM, the GI50 [57] was 3.24 µM and the TGI [57] was 16.3 µM. The GI50 [58] was 1940 nM, the TGI [58] was 5.86 µM and the GI50 [59] was 468 nM. For the same compound, the TGI [59] was 10.8 µM.
